Laboratory results published in patent US20250144067A1, “PERSONALIZED STARVATION THERAPY FOR CANCER” (Faeth Therapeutics, Inc., priority 2021, published 2025).
Where a name gives a salt, the structure may show the parent alone.

The compounds below were run on NCI-H292 lung cancer cells (assay: FDA drug screening, complete media vs cholesterol-free media without statin (TABLE 1)). Conditions: Complete minus Cholesterol-free; >0 enhanced anti-cancer activity, about 0 neutral, <0 antagonist.
Assay type: cell-based, human

Row | Structure (SMILES) | Difference
1 | O=C(O)C1=C(CSc2nnnn2CS(=O)(=O)O)CS[C@@H]2[C@H](NC(=O)[C@H](O)c3ccccc3)C(=O)N12 [Cefonicid (sodium)] | 0.00
2 | CO[C@@]1(NC(=O)C2SC(=C(C(N)=O)C(=O)O)S2)C(=O)N2C(C(=O)O)=C(CSc3nnnn3C)CS[C@@H]21 (stereo partly drawn) [Cefotetan] | −0.26
3 | CO/N=C(\C(=O)N[C@@H]1C(=O)N2C(C(=O)[O-])=C(C[n+]3ccn4ncccc43)CS[C@H]12)c1nsc(N)n1 [Cefozopran (hydrochloride)] | −0.04

Same assay, conditions: Complete minus Cholesterol-free; greater than 0 enhanced anti-cancer activity, about 0 neutral, below 0 antagonist

Row | Structure (SMILES) | Difference
4 | CO/N=C(\C(=O)N[C@@H]1C(=O)N2C(C(=O)OCOC(=O)C(C)(C)C)=C(C)CS[C@H]12)c1csc(N)n1.Cl [Cefetamet pivoxil (hydrochloride)] | −0.16
5 | CO[C@@]1(NC(=O)Cc2cccs2)C(=O)N2C(C(=O)O)=C(COC(N)=O)CS[C@@H]21 [Cefoxitin] | −0.13

Same assay, conditions: Complete minus Cholesterol-free; greater than 0 enhanced anti-cancer activity, about 0 neutral, below 0 antagonists

Row | Structure (SMILES) | Difference
6 | Cc1nnc(SCC2=C(C(=O)O)N3C(=O)[C@@H](NC(=O)Cn4cnnn4)[C@H]3SC2)s1 [Cefazolin] | −0.54

Same assay, conditions: NCI-H292 cells in cholesterol-free media without statin

Row | Structure (SMILES) | Cholesterol-free
7 | Cc1nnc(SCC2=C(C(=O)O)N3C(=O)[C@@H](NC(=O)Cn4cnnn4)[C@H]3SC2)s1 [Cefazolin] | 1.603

Same assay, conditions: NCI-H292 cells in complete media

Row | Structure (SMILES) | Complete
8 | Cc1nnc(SCC2=C(C(=O)O)N3C(=O)[C@@H](NC(=O)Cn4cnnn4)[C@H]3SC2)s1 [Cefazolin] | 1.065

Same assay, conditions: NCI-H292 cells, FDA drug library screen, cholesterol-free media without statin

Row | Structure (SMILES) | Cholesterol-free
9 | CO/N=C(\C(=O)N[C@@H]1C(=O)N2C(C(=O)OCOC(=O)C(C)(C)C)=C(C)CS[C@H]12)c1csc(N)n1.Cl [Cefetamet pivoxil (hydrochloride)] | 1.076
10 | CO[C@@]1(NC(=O)Cc2cccs2)C(=O)N2C(C(=O)O)=C(COC(N)=O)CS[C@@H]21 [Cefoxitin] | 0.8861

Same assay, conditions: NCI-H292 cells, FDA drug library screen, complete media

Row | Structure (SMILES) | Complete
11 | CO/N=C(\C(=O)N[C@@H]1C(=O)N2C(C(=O)OCOC(=O)C(C)(C)C)=C(C)CS[C@H]12)c1csc(N)n1.Cl [Cefetamet pivoxil (hydrochloride)] | 0.9196
12 | CO[C@@]1(NC(=O)Cc2cccs2)C(=O)N2C(C(=O)O)=C(COC(N)=O)CS[C@@H]21 [Cefoxitin] | 0.755

Same assay, conditions: NCI-H292 cells, cholesterol-free media without statin

Row | Structure (SMILES) | Cholesterol-free
13 | CO[C@@]1(NC(=O)C2SC(=C(C(N)=O)C(=O)O)S2)C(=O)N2C(C(=O)O)=C(CSc3nnnn3C)CS[C@@H]21 (stereo partly drawn) [Cefotetan] | 1.196

Same assay, conditions: NCI-H292 cells, cholesterol-free media without statin, FDA drug library screen

Row | Structure (SMILES) | Cholesterol-free
14 | O=C(O)C1=C(CSc2nnnn2CS(=O)(=O)O)CS[C@@H]2[C@H](NC(=O)[C@H](O)c3ccccc3)C(=O)N12 [Cefonicid (sodium)] | 0.833
15 | CO/N=C(\C(=O)N[C@@H]1C(=O)N2C(C(=O)[O-])=C(C[n+]3ccn4ncccc43)CS[C@H]12)c1nsc(N)n1 [Cefozopran (hydrochloride)] | 1.014

Same assay, conditions: NCI-H292 cells, complete media

Row | Structure (SMILES) | Complete
16 | CO[C@@]1(NC(=O)C2SC(=C(C(N)=O)C(=O)O)S2)C(=O)N2C(C(=O)O)=C(CSc3nnnn3C)CS[C@@H]21 (stereo partly drawn) [Cefotetan] | 0.9309

Same assay, conditions: NCI-H292 cells, complete media, FDA drug library screen

Row | Structure (SMILES) | Complete
17 | O=C(O)C1=C(CSc2nnnn2CS(=O)(=O)O)CS[C@@H]2[C@H](NC(=O)[C@H](O)c3ccccc3)C(=O)N12 [Cefonicid (sodium)] | 0.8286
18 | CO/N=C(\C(=O)N[C@@H]1C(=O)N2C(C(=O)[O-])=C(C[n+]3ccn4ncccc43)CS[C@H]12)c1nsc(N)n1 [Cefozopran (hydrochloride)] | 0.9759

The compounds below were run on NCI-H292 lung cancer cells (assay: FDA drug screening, complete media vs cholesterol-free media with simvastatin (TABLE 2)). Conditions: NCI-H292 cells, FDA drug library screen, cholesterol-free media with simvastatin 0.04 μM.
Assay type: cell-based, human

Row | Structure (SMILES) | Cholesterol-free media + simvastatin (0.04 μM)
19 | Cc1nnc(SCC2=C(C(=O)O)N3C(=O)[C@@H](NC(=O)Cn4cnnn4)[C@H]3SC2)s1 [Cefazolin] | 1.197
20 | O=C(O)C1=C(CSc2nnnn2CS(=O)(=O)O)CS[C@@H]2[C@H](NC(=O)[C@H](O)c3ccccc3)C(=O)N12 [Cefonicid (sodium)] | 1.25

Same assay, conditions: NCI-H292 cells, FDA drug library screen, complete media

Row | Structure (SMILES) | Complete Media
21 | Cc1nnc(SCC2=C(C(=O)O)N3C(=O)[C@@H](NC(=O)Cn4cnnn4)[C@H]3SC2)s1 [Cefazolin] | 1.069
22 | O=C(O)C1=C(CSc2nnnn2CS(=O)(=O)O)CS[C@@H]2[C@H](NC(=O)[C@H](O)c3ccccc3)C(=O)N12 [Cefonicid (sodium)] | 1.107

Same assay, conditions: NCI-H292 cells, FDA library drug in cholesterol-free media with simvastatin 0.04 μM

Row | Structure (SMILES) | Cholesterol-free media + simvastatin (0.04 μM)
23 | CO[C@@]1(NC(=O)Cc2cccs2)C(=O)N2C(C(=O)O)=C(COC(N)=O)CS[C@@H]21 [Cefoxitin] | 1.841
24 | CO/N=C(\C(=O)N[C@@H]1C(=O)N2C(C(=O)[O-])=C(C[n+]3ccn4ncccc43)CS[C@H]12)c1nsc(N)n1 [Cefozopran (hydrochloride)] | 1.89

Same assay, conditions: NCI-H292 cells, FDA library drug in complete media

Row | Structure (SMILES) | Complete Media
25 | CO[C@@]1(NC(=O)Cc2cccs2)C(=O)N2C(C(=O)O)=C(COC(N)=O)CS[C@@H]21 [Cefoxitin] | 1.5
26 | CO/N=C(\C(=O)N[C@@H]1C(=O)N2C(C(=O)[O-])=C(C[n+]3ccn4ncccc43)CS[C@H]12)c1nsc(N)n1 [Cefozopran (hydrochloride)] | 1.537

Same assay, conditions: NCI-H292 cells, drug in cholesterol-free media with simvastatin 0.04 μM

Row | Structure (SMILES) | Cholesterol-free media + simvastatin (0.04 μM)
27 | CO/N=C(\C(=O)N[C@@H]1C(=O)N2C(C(=O)OCOC(=O)C(C)(C)C)=C(C)CS[C@H]12)c1csc(N)n1.Cl [Cefetamet pivoxil (hydrochloride)] | 1.058
28 | CO[C@@]1(NC(=O)C2SC(=C(C(N)=O)C(=O)O)S2)C(=O)N2C(C(=O)O)=C(CSc3nnnn3C)CS[C@@H]21 (stereo partly drawn) [Cefotetan] | 1.2

Same assay, conditions: NCI-H292 cells, drug in complete media

Row | Structure (SMILES) | Complete Media
29 | CO/N=C(\C(=O)N[C@@H]1C(=O)N2C(C(=O)OCOC(=O)C(C)(C)C)=C(C)CS[C@H]12)c1csc(N)n1.Cl [Cefetamet pivoxil (hydrochloride)] | 0.852
30 | CO[C@@]1(NC(=O)C2SC(=C(C(N)=O)C(=O)O)S2)C(=O)N2C(C(=O)O)=C(CSc3nnnn3C)CS[C@@H]21 (stereo partly drawn) [Cefotetan] | 1.027

Same assay, conditions: complete media vs cholesterol-free media + simvastatin (0.04 μM); >0 enhanced anti-cancer activity, about 0 neutral, <0 antagonist

Row | Structure (SMILES) | Difference
31 | Cc1nnc(SCC2=C(C(=O)O)N3C(=O)[C@@H](NC(=O)Cn4cnnn4)[C@H]3SC2)s1 [Cefazolin] | −0.13
32 | CO/N=C(\C(=O)N[C@@H]1C(=O)N2C(C(=O)OCOC(=O)C(C)(C)C)=C(C)CS[C@H]12)c1csc(N)n1.Cl [Cefetamet pivoxil (hydrochloride)] | −0.21
33 | O=C(O)C1=C(CSc2nnnn2CS(=O)(=O)O)CS[C@@H]2[C@H](NC(=O)[C@H](O)c3ccccc3)C(=O)N12 [Cefonicid (sodium)] | −0.14
34 | CO[C@@]1(NC(=O)C2SC(=C(C(N)=O)C(=O)O)S2)C(=O)N2C(C(=O)O)=C(CSc3nnnn3C)CS[C@@H]21 (stereo partly drawn) [Cefotetan] | −0.17
35 | CO[C@@]1(NC(=O)Cc2cccs2)C(=O)N2C(C(=O)O)=C(COC(N)=O)CS[C@@H]21 [Cefoxitin] | −0.34
36 | CO/N=C(\C(=O)N[C@@H]1C(=O)N2C(C(=O)[O-])=C(C[n+]3ccn4ncccc43)CS[C@H]12)c1nsc(N)n1 [Cefozopran (hydrochloride)] | −0.35
